# Source: US6849596B1, “Regulatory/unfolding peptides of ezrin” (priority 1999, dated 2005)
# How the values were obtained:
# IL-8 = IL-8 production in human WBC; type: cell-based; details: 48 hour incubation, without peptide 18900
# Description: The suppressive effect of increasing concentrations of Rupe312, a Hepreceptor peptide, on the expression of IL-8 by human WBC after a 48 hour incubation at 37° C. was detected. IL-8 is a chemotactic factor that is produced in response to inflammatory stimulus which attracts and activates T cells, neutrophils, basophils, granulocytes but not monocyte/macrophages. The inhibition of IL-8 may play a role in the selective activity of Rupe 312 in activating monocytes macrophages. The measurement of IL-8 provides an assay for determining the activity of various Hepreceptor derived peptides.
# [1] = system: HLA Class I on human White Blood Cells; assay: Expression of MHC (HLA) Class I on human White Blood Cells; type: cell-based; details: 0.003 micrograms per ml
# Excerpt: A cell specific effect of this activation was an increase in the population of monocytes expressing MHC Class I and a decrease in the population of CD8 lymphocytes expressing MHC Class I.
# [2] = system: transplanted cervical cancer CUC-5; assay: Transplanted mouse cervical cancer model CUC-5; type: in vivo, CBA mice; details: for Percent decrease in tumour volume relative to control / Days of life expectancy: CUC-5; for Days of life expectancy: control 47-76
# Excerpt: Anticancer Activity of Hepreceptor Peptides on the Growth of Transplanted Sarcoma of the Uterus SM-322 and on Cancer of the Uterine Cervix CUS-5 Performed in CBA Mice Using Rupe312 and Rupe414 as Examples
# Transplanted mouse cervical cancer model CUC-5 (epithelial tumour)
# Primary tumours were induced in female mice using methylcholantrene. A few primary turnouts were then auto-transplanted into the uterine cervix. The life expectancy of mice with transplanted tumours was 43 days.
# CBA female mice weighed 21.4=/−1.2 g. and were 2-3 months old. The tumours were introduced as a 0.5 ml of tumour suspension (1 g tumour per 10 ml of Igla medium) and ten mice used in each treatment group.
# Lyophylised peptide were dissolved in sterile physiological saline immediately before use in three concentrations. 0.5 ml of solution was injected twice weekly into the peritoneum of the mice for the duration of the experiment. Three different concentrations of peptide were used leading to three final doses per injection per mouse of 10, 1.0 and 0.1 micrograms.
# The average percent decrease of tumour volume relative to the control group was recorded at three time points. The longevity of the mice in the treatment groups and control groups was compared and the histology of the tumours between control and treatment groups was compared.
# [3] = system: transplanted sarcoma of the uterus SM-322; assay: Transplanted mouse sarcoma SM-322 model; type: in vivo, CBA mice; details: for Percent decrease in tumour volume relative to control: SM-322
# Excerpt: Anticancer Activity of Hepreceptor Peptides on the Growth of Transplanted Sarcoma of the Uterus SM-322 and on Cancer of the Uterine Cervix CUS-5 Performed in CBA Mice Using Rupe312 and Rupe414 as Examples Transplanted mouse sarcoma SM-322 model (endothelial tumour). Primary tumours of the uterus were induced in female mice using 1.2 dimethylhydrazine. A few primary tumours were transplanted into syngeneic mice. The first visible nodules started to appear at the point of transplation after 4 days. The life expectancy of the mice with transplanted tumours was 22-24 days. […] The tumours were introduced as a 0.5 ml of tumour suspension (1 g tumour per 10 ml of Igla medium) and ten mice used in each treatment group. […] The average percent decrease of tumour volume relative to the control group was recorded at three time points. The longevity of the mice in the treatment groups and control groups was compared and the histology of the tumours between control and treatment groups was compared.
# [4] = 0.1 Microg/mouse IP twice weekly, Day 8
# [5] = 0.1 Microg/mouse IP twice weekly, Day 12
# [6] = 1 Microg/mouse IP twice weekly, Day 8
# [7] = 1 Microg/mouse IP twice weekly, Day 12
# [8] = 10 Microg/mouse IP twice weekly, Day 8
# [9] = 10 Microg/mouse IP twice weekly, Day 12
sequence,measurement,setting,value
KKRRETVERE (Hepreceptor peptide) [Rupe312],IL-8 concentration in culture,IL-8; Rupe312 0.001 micrograms/ml,13900 picrograms/ml
same,IL-8 concentration in culture,IL-8; Rupe312 0.003 micrograms/ml,10700 picrograms/ml
same,IL-8 concentration in culture,IL-8; Rupe312 0.01 micrograms/ml,8984 picrograms/ml
same,IL-8 concentration in culture,IL-8; Rupe312 0.03 micrograms/ml,7869 picrograms/ml
same,IL-8 concentration in culture,IL-8; Rupe312 0.1 micrograms/ml,6426 picrograms/ml
same,relative activity in lowering intensity of HLA expression on WBC,[1]; 24 hours,more active than Rupe 414
same,"Density of cell surface expression of HLA Class I, rebased to 100 for control","[1]; B and NK cells, 24 hours",73
same,"Percentage of cell population expressing HLA Class I, rebased to 100 for control","[1]; B and NK cells, 24 hours",105
same,"Density of cell surface expression of HLA Class I, rebased to 100 for control","[1]; CD4 lymphocytes, 24 hours",70
same,"Percentage of cell population expressing HLA Class I, rebased to 100 for control","[1]; CD4 lymphocytes, 24 hours",104
same,"Density of cell surface expression of HLA Class I, rebased to 100 for control","[1]; CD8 lymphocytes, 24 hours",72
same,"Percentage of cell population expressing HLA Class I, rebased to 100 for control","[1]; CD8 lymphocytes, 24 hours",85
same,"Density of cell surface expression of HLA Class I, rebased to 100 for control","[1]; Granulocytes, 24 hours",81
same,"Percentage of cell population expressing HLA Class I, rebased to 100 for control","[1]; Granulocytes, 24 hours",98
same,"Percentage of cell population expressing HLA Class I, rebased to 100 for control","[1]; Monocytes/Macrophages, 24 hours",119
same,"Density of cell surface expression of HLA Class I, rebased to 100 for control","[1]; Monocytes/Macrophages, 24 hours at 37° C.",71
same,Percent decrease in tumour volume relative to control,[2]; [4],50%
same,Percent decrease in tumour volume relative to control,[2]; [5],18%
same,Percent decrease in tumour volume relative to control,"[2]; 0.1 Microg/mouse IP twice weekly, Day 19",45%
same,Days of life expectancy,[2]; 0.1 Microg/mouse IP twice weekly,42 to 76 days
same,Percent decrease in tumour volume relative to control,[2]; [6],50%
same,Percent decrease in tumour volume relative to control,[2]; [7],26%
same,Percent decrease in tumour volume relative to control,"[2]; 1 Microg/mouse IP twice weekly, Day 19",49%
same,Days of life expectancy,[2]; 1 Microg/mouse IP twice weekly,47 to 76 days
same,Percent decrease in tumour volume relative to control,[2]; [8],50%
same,Percent decrease in tumour volume relative to control,[2]; [9],25%
same,Percent decrease in tumour volume relative to control,"[2]; 10 Microg/mouse IP twice weekly, Day 19",49%
same,Days of life expectancy,[2]; 10 Microg/mouse IP twice weekly,48 to 76 days
same,change in life expectancy,[2]; slower growing transplanted cervical cancer,no significant increase (or decrease) in life expectancy was detected
same,Percent decrease in tumour volume relative to control,[3]; [4],61%
same,Percent decrease in tumour volume relative to control,[3]; [5],34%
same,Percent decrease in tumour volume relative to control,"[3]; 0.1 Microg/mouse IP twice weekly, Day 15",59%
same,Percent decrease in tumour volume relative to control,[3]; [6],67%
same,Percent decrease in tumour volume relative to control,[3]; [7],32%
same,Percent decrease in tumour volume relative to control,"[3]; 1 Microg/mouse IP twice weekly, Day 15",38%
same,Percent decrease in tumour volume relative to control,[3]; [8],63%
same,Percent decrease in tumour volume relative to control,[3]; [9],54%
same,Percent decrease in tumour volume relative to control,"[3]; 10 Microg/mouse IP twice weekly, Day 15",27%
same,histology of the tumours,[3]; both models (SM-322 and CUC-5),non bleeding ulcerous destruction of the centre of tumours
